Reference: patent US8748430B2, “Pyrrolidin-3yl-methylamine quinoxaline derivatives” (Hoffmann-La Roche Inc, priority 2008, dated 2014)

Target: T1, human orexin-2 (hOX2) receptor (Homo sapiens, UniProt O43614)
T1 construct: expressed in transfected cells
T1 sequence (O43614 1-444): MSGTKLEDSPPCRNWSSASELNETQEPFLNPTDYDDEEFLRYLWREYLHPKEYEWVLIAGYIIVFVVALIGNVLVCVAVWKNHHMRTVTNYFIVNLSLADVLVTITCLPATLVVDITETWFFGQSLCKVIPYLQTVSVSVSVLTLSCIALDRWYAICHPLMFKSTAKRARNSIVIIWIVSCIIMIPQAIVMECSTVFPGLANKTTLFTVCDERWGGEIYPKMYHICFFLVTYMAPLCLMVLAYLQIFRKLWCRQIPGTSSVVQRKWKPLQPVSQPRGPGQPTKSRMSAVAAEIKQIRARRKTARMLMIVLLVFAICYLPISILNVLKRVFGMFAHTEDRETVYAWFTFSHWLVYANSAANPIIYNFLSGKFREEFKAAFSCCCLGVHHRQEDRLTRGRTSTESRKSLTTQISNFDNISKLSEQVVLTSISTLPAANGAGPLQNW
Experiment: Intracellular Ca2+ mobilization assay (FLIPR), antagonism of orexin-A at EC80
Format: cell-based
Conditions: CHO(dHFr-) cells stably expressing hOX2; orexin-A at EC80 as agonist; antagonist applied 25 min before; Kb=IC50/(1+[A]/EC50); read-out: Kb (μM) OX2R (human)
Description: Intracellular Ca^2+ Mobilization Assay
The Chinese Hamster Ovary (dHFr-) mutant cell line stably expressing human orexin-1 (hOX1) or human orexin-2 (hOX2) receptors were maintained in Dulbecco's Modified Eagle Medium (1×) with GlutaMax™1, 4500 mg/L D-Glucose and Sodium Pyruvate (Catalog No. 31966-021, Invitrogen, Carlsbad, Calif.), 5% dialyzed fetal calf serum (Catalog No. 26400-044), 100 μg/ml penicillin and 100 μg/ml streptomycin. The cells were seeded at 5×10^4 cells/well in the poly-D-lysine treated, 96-well, black/clear-bottomed plates (Catalog No. BD356640, BD Biosciences, Palo Alto, Calif.). 24 h later, the cells were loaded for 1 h at 37° C. with 4 μM Flou-4 acetoxymethyl ester (Catalog No. F-14202, Molecular Probes, Eugene, Oreg.) in FLIPR buffer (1×HBSS, 20 mM HEPES, 2.5 mM Probenecid). Hanks' Balanced Salt Solution (HBSS) (10×) (catalog No. 14065-049) and HEPES (1M) (catalog No. 15630-056) were purchased from Invitrogen, Carlsbad, Calif. Probenecid (250 mM) (catalog No. P8761) was from Sigma, Buchs, Switzerland. The cells were washed five times with FLIPR buffer to remove excess dye and intracellular calcium mobilization, [Ca^2+]i were measured using a Fluorometric Imaging Plate Reader (FLIPR-96, Molecular Devices, Menlo Park, Calif.) as described previously (Malherbe et al., Mol. Pharmacol., 64, 823-832, 2003). Orexin A (catalog No. 1455, Toris Cookson Ltd, Bristol, UK) was used as agonist. Orexin A ([…] stock solution in DMSO) was diluted in FLIPR buffer+0.1% BSA. The EC50 and EC80 values of orexin-A were measured daily from standard agonist concentration-response curves in CHO(dHFr-)-OX1R and -OX2R cell lines. All compounds were dissolved in 100% DMSO. Inhibition curves were determined by addition of 11 concentrations (0.0001-10 μM) of inhibitory compounds and using EC80 value of orexin-A as agonist (a concentration which gave 80% of max agonist response, determined daily). The antagonists were applied 25 min (incubation at 37° C.) before the application of the agonist. Responses were measured as peak increase in fluorescence minus basal, normalized to the maximal stimulatory effect induced by EC80 value of orexin-A or orexin-B. Inhibition curves were fitted according to the Hill equation: y=100/(1+(x/IC50)^nH), where nH=slope factor using Excel-fit 4 software (Microsoft). Kb values were calculated according to the following equation Kb=IC50/(1+[A]/EC50) where A is the concentration of agonist added which is very close to agonist EC80 value, and IC50 and EC50 values were derived from the antagonist inhibition and orexin-A or B agonist curves, respectively.

| Structure (SMILES) | Kb |
| --- | --- |
| COc1cccc(OC)c1C(=O)N1CCC(CNc2nc3ccc(Cl)cc3o2)C1 (centres unmarked) [Example 1, {3-[(6-Chloro-benzooxazol-2-ylamino)-methyl]-pyrrolidin-1-yl}-(2,6-dimethoxy-phenyl)-methanone] | 0.0292 µM |
| COc1cccc(OC)c1C(=O)N1CC[C@@H](CNc2nc3ccc(Cl)cc3o2)C1 [Example 2, {(S)-3-[(6-Chloro-benzooxazol-2-ylamino)-methyl]-pyrrolidin-1-yl}-(2,6-dimethoxy-phenyl)-methanone] | 0.0573 µM |
| O=C(c1ccccc1C(F)(F)F)N1CC[C@@H](CNc2nc3ccc(F)cc3s2)C1 [Example 3, {(S)-3-[(6-Fluoro-benzothiazol-2-ylamino)-methyl]-pyrrolidin-1-yl}-(2-trifluoromethyl-phenyl)-methanone] | 0.207 µM |
| O=C(c1ccccc1OC(F)(F)F)N1CC[C@@H](CNc2nc3ccc(F)cc3s2)C1 [Example 4, {(S)-3-[(6-Fluoro-benzothiazol-2-ylamino)-methyl]-pyrrolidin-1-yl}-(2-trifluoromethoxy-phenyl)-methanone] | 0.129 µM |
| O=C(c1ccccc1OC(F)(F)C(F)F)N1CC[C@@H](CNc2nc3ccc(F)cc3s2)C1 [Example 5, {(S)-3-[(6-Fluoro-benzothiazol-2-ylamino)-methyl]-pyrrolidin-1-yl}-[2-(1,1,2,2-tetrafluoro-ethoxy)-phenyl]-methanone] | 0.0318 µM |
| Cc1ccc(C(F)(F)F)c(C(=O)N2CC[C@@H](CNc3nc4ccc(F)cc4s3)C2)c1 [Example 6, {(S)-3-[(6-Fluoro-benzothiazol-2-ylamino)-methyl]-pyrrolidin-1-yl}-(5-methyl-2-trifluoromethyl-phenyl)-methanone] | 0.115 µM |
| Cc1onc(-c2ccccc2)c1C(=O)N1CC[C@@H](CNc2nc3ccc(F)cc3s2)C1 [Example 7, {(S)-3-[(6-Fluoro-benzothiazol-2-ylamino)-methyl]-pyrrolidin-1-yl}-(5-methyl-3-phenyl-isoxazol-4-yl)-methanone] | 0.0623 µM |
| O=C(c1cnoc1-c1ccccc1)N1CC[C@@H](CNc2nc3ccc(F)cc3s2)C1 [Example 8, {(S)-3-[(6-Fluoro-benzothiazol-2-ylamino)-methyl]-pyrrolidin-1-yl}-(5-phenyl-isoxazol-4-yl)-methanone] | 0.0829 µM |
| Cc1ccc(Cl)c(C(=O)N2CC[C@@H](CNc3nc4ccc(F)cc4s3)C2)c1 [Example 9, (2-Chloro-5-methyl-phenyl)-{(S)-3-[(6-fluoro-benzothiazol-2-ylamino)-methyl]-pyrrolidin-1-yl}-methanone] | 0.337 µM |
| COc1ccc(C)cc1C(=O)N1CC[C@@H](CNc2nc3ccc(F)cc3s2)C1 [Example 10, {(S)-3-[(6-Fluoro-benzothiazol-2-ylamino)-methyl]-pyrrolidin-1-yl}-(2-methoxy-5-methyl-phenyl)-methanone] | 0.165 µM |
| O=C(c1ccccc1C(F)(F)F)N1CC[C@@H](CNc2nc3ccc(Cl)cc3o2)C1 [Example 11, {(S)-3-[(6-Chloro-benzooxazol-2-ylamino)-methyl]-pyrrolidin-1-yl}-(2-trifluoromethyl-phenyl)-methanone] | 0.726 µM |
| O=C(c1ccccc1OC(F)(F)F)N1CC[C@@H](CNc2nc3ccc(Cl)cc3o2)C1 [Example 12, {(S)-3-[(6-Chloro-benzooxazol-2-ylamino)-methyl]-pyrrolidin-1-yl}-(2-trifluoromethoxy-phenyl)-methanone] | 0.214 µM |
| O=C(c1ccccc1OC(F)(F)C(F)F)N1CC[C@@H](CNc2nc3ccc(Cl)cc3o2)C1 [Example 13, {(S)-3-[(6-Chloro-benzooxazol-2-ylamino)-methyl]-pyrrolidin-1-yl}-[2-(1,1,2,2-tetrafluoro-ethoxy)-phenyl]-methanone] | 0.149 µM |
| Cc1ccc(C(F)(F)F)c(C(=O)N2CC[C@@H](CNc3nc4ccc(Cl)cc4o3)C2)c1 [Example 14, {(S)-3-[(6-Chloro-benzooxazol-2-ylamino)-methyl]-pyrrolidin-1-yl}-(5-methyl-2-trifluoromethyl-phenyl)-methanone] | 0.304 µM |
| Cc1onc(-c2ccccc2)c1C(=O)N1CC[C@@H](CNc2nc3ccc(Cl)cc3o2)C1 [Example 15, {(S)-3-[(6-Chloro-benzooxazol-2-ylamino)-methyl]-pyrrolidin-1-yl}-(5-methyl-3-phenyl-isoxazol-4-yl)-methanone] | 0.0819 µM |
| O=C(c1cnoc1-c1ccccc1)N1CC[C@@H](CNc2nc3ccc(Cl)cc3o2)C1 [Example 16, {(S)-3-[(6-Chloro-benzooxazol-2-ylamino)-methyl]-pyrrolidin-1-yl}-(5-phenyl-isoxazol-4-yl)-methanone] | 0.147 µM |
| Cc1ccc(Cl)c(C(=O)N2CC[C@@H](CNc3nc4ccc(Cl)cc4o3)C2)c1 [Example 17, {(S)-3-[(6-Chloro-benzooxazol-2-ylamino)-methyl]-pyrrolidin-1-yl}-(2-chloro-5-methyl-phenyl)-methanone] | 0.565 µM |
| COc1ccc(C)cc1C(=O)N1CC[C@@H](CNc2nc3ccc(Cl)cc3o2)C1 [Example 18, {(S)-3-[(6-Chloro-benzooxazol-2-ylamino)-methyl]-pyrrolidin-1-yl}-(2-methoxy-5-methyl-phenyl)-methanone] | 0.355 µM |
| O=C(c1ccccc1OC(F)(F)F)N1CC[C@@H](CNc2nc3cccc(F)c3o2)C1 [Example 19, {(S)-3-[(7-Fluoro-benzooxazol-2-ylamino)-methyl]-pyrrolidin-1-yl}-(2-trifluoromethoxy-phenyl)-methanone] | 0.69 µM |
| O=C(c1ccccc1OC(F)(F)C(F)F)N1CC[C@@H](CNc2nc3cccc(F)c3o2)C1 [Example 20, {(S)-3-[(7-Fluoro-benzooxazol-2-ylamino)-methyl]-pyrrolidin-1-yl}-[2-(1,1,2,2-tetrafluoro-ethoxy)-phenyl]-methanone] | 0.0772 µM |
| Cc1ccc(C(F)(F)F)c(C(=O)N2CC[C@@H](CNc3nc4cccc(F)c4o3)C2)c1 [Example 21, {(S)-3-[(7-Fluoro-benzooxazol-2-ylamino)-methyl]-pyrrolidin-1-yl}-(5-methyl-2-trifluoromethyl-phenyl)-methanone] | 0.396 µM |
| Cc1onc(-c2ccccc2)c1C(=O)N1CC[C@@H](CNc2nc3cccc(F)c3o2)C1 [Example 22, {(S)-3-[(7-Fluoro-benzooxazol-2-ylamino)-methyl]-pyrrolidin-1-yl}-(5-methyl-3-phenyl-isoxazol-4-yl)-methanone] | 0.0566 µM |
| O=C(c1cnoc1-c1ccccc1)N1CC[C@@H](CNc2nc3cccc(F)c3o2)C1 [Example 23, {(S)-3-[(7-Fluoro-benzooxazol-2-ylamino)-methyl]-pyrrolidin-1-yl}-(5-phenyl-isoxazol-4-yl)-methanone] | 0.123 µM |
| Cc1ccc(Cl)c(C(=O)N2CC[C@@H](CNc3nc4cccc(F)c4o3)C2)c1 [Example 24, (2-Chloro-5-methyl-phenyl)-{(S)-3-[(7-fluoro-benzooxazol-2-ylamino)-methyl]-pyrrolidin-1-yl}-methanone] | 0.754 µM |
| COc1ccc(C)cc1C(=O)N1CC[C@@H](CNc2nc3cccc(F)c3o2)C1 [Example 25, {(S)-3-[(7-Fluoro-benzooxazol-2-ylamino)-methyl]-pyrrolidin-1-yl}-(2-methoxy-5-methyl-phenyl)-methanone] | 0.675 µM |
| O=C(c1ccccc1OC(F)(F)F)N1CC[C@@H](CNc2cnc3cc(Cl)ccc3n2)C1 [Example 26, {(S)-3-[(6-Chloro-quinoxalin-2-ylamino)-methyl]-pyrrolidin-1-yl}-(2-trifluoromethoxy-phenyl)-methanone] | 0.178 µM |
